# Results as given in patent US10624871B2, “Bismuth(III) compounds and methods thereof” (priority 2016, dated 2020).
# Biological target: NDM-1 (Klebsiella pneumoniae, UniProt C7C422)
# Test: Zn(II) displacement by Bi(III) using ICP-MS
# Type: binding
# Conditions: Zn2-NDM-1 20 μM incubated with CBS, 25° C., 5 hrs
# Description: To monitor the replacement of Zn(II) by Bi(III), inductively-coupled plasma mass spectrometry (ICP-MS) was employed to accurately quantify ^209Bi and ^66Zn contents in various purified NDM-1 samples. Purified Zn2-NDM-1 was prepared as described previously and was dissolved in trace-metal-free ICP-MS buffer containing 50 mM HEPES, pH 7.0 through cycles of buffer washing using an Amicon Ultra-15 Centrifugal Filter Devices with 3 kDa cut-off. Zn2-NDM-1 (20 μM) was incubated with various concentrations of CBS at 25° C. for 5 hrs with mild shaking. The samples were subsequently dialyzed in ICP-MS buffer to remove unbound-metal ions and were acidified with 10% (v/v) nitric acid for 1 h with gentle heating for releasing the bound metal ions from the protein for ICP analysis. The samples were then mixed with 115In as an internal standard to reach a final concentration of 10 ppb in 1% HNO3. After calibration with the isotope standards ^209Bi, ^66Zn and ^34S from Sigma, the samples were subsequently injected into a quadrupole-based inductively coupled plasma mass spectrometer (Agilent 7500a, Agilent Technologies, CA, USA). ^209Bi, ^66Zn and ^34S isotopes abundances were determined simultaneously by integration of peak areas using the build-in software from the instrument so that ^34S abundance serves as a way for quantifying protein concentration in each sample.
# Chain of NDM-1 (C7C422 whole entry, looked up): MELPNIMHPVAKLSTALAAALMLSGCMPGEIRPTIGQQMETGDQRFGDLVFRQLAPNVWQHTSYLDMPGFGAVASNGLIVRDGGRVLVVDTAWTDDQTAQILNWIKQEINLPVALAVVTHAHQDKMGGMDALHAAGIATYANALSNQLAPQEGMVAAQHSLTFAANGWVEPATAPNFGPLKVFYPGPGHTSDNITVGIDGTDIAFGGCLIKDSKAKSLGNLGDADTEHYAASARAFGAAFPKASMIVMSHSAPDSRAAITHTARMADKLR
smiles,measurement,value
"O=C([O-])CC([O-])(CC(=O)[O-])C(=O)[O-].O=C([O-])CC([O-])(CC(=O)[O-])C(=O)[O-].[Bi+3].[Bi+3].[K+] [Complex 10, colloidal bismuth subcitrate]",Bi(III) bound to NDM-1,0.96 equivalent
same,Zn(II) replaced from NDM-1,2.13 molar equivalents
